Converted amounts (≈) assume the structure as drawn.
What was measured:
HT29 = test: MTT antiproliferative assay, HT29 cells; assay type: cell-based; settings: Homo sapiens, HT-29; for inhibition at 2 µg/mL: HT29, 2 μg/mL; for inhibition at 2 µg/mL / inhibition at 20 µg/mL: 48 h, MTT, read-out: Antiproliferative activity (growth inhibition, %); for inhibition at 20 µg/mL: HT29, 20 μg/mL; for IC50: HT29, MTT
Protocol: (§1) All the cells were seeded in 96-well plates and incubated with 5% CO2 at 37 °C for 24 h. Next, the compounds and the reference were dissolved into the culture medium. The final concentration of DMSO in the medium was less than 0.5%. After the cells were treated with compounds for 48 h, the supernatant was removed and 5 mg/mL of a fresh prepared solution of MTT was added to each well and incubated with the cells at 37 °C for another 4 h. The medium was removed, and 100 μL of testing solution was added to each well. After an overnight incubation with 5% CO2 at 37 °C, the absorbance was measured at 490/630 nm by the microplate reader. The IC50 was calculated using GraphPad Prism version 6.0 software (San Diego, CA, USA) from the non-linear curve.

HepG2 = test: MTT antiproliferative assay, HepG2 cells; assay type: cell-based; settings: Homo sapiens
Protocol: as §1

Karpas299 = test: MTT antiproliferative assay, Karpas299 cells; assay type: cell-based; settings: Homo sapiens, KARPAS-299
Protocol: as §1

MCF-7 = test: MTT antiproliferative assay, MCF-7 cells; assay type: cell-based; settings: Homo sapiens, MCF7; MCF-7, MTT
Protocol: as §1

A549 = test: MTT antiproliferative assay, A549 cells; assay type: cell-based; settings: Homo sapiens; for inhibition at 2 µg/mL: A549, 2 μg/mL; for inhibition at 2 µg/mL / inhibition at 20 µg/mL: 48 h, MTT, read-out: Antiproliferative activity (growth inhibition, %); for inhibition at 20 µg/mL: A549, 20 μg/mL; for IC50: A549, MTT
Protocol: as §1

PC-3 = test: MTT antiproliferative assay, PC-3 cells; assay type: cell-based; settings: Homo sapiens; PC-3, MTT
Protocol: as §1

IC50 (HT29) [µg/mL] | IC50 (HepG2) [µg/mL] | IC50 (Karpas299) [µg/mL] | IC50 (MCF-7) [µg/mL] | IC50 (A549) [µg/mL] | melting point [°C] | IC50 (PC-3) [µg/mL] | SMILES | inhibition at 2 µg/mL (HT29) [%] | inhibition at 20 µg/mL (HT29) [%] | inhibition at 2 µg/mL (A549) [%] | inhibition at 20 µg/mL (A549) [%]
7.3 (≈ 11.8 µM) | 4.75 (≈ 7.69 µM) | 11.4 (≈ 18.5 µM) | 7.86 (≈ 12.7 µM) | 3.24 (≈ 5.24 µM) | 279.8 to 280.6 | 10.7 (≈ 17.3 µM) | Cc1cc(C)cc(NC(=O)O[C@H]2CC[C@@]3(C)C(CC[C@]4(C)[C@@H]3C(=O)C=C3[C@@H]5C[C@@](C)(C(=O)O)CC[C@]5(C)CC[C@]34C)C2(C)C)c1 (stereo partly drawn) [3o, 3β-(((3,5-dimethylphenyl)carbamoyl)oxy)-11-oxo-olean-12-en-30-oic acid] | 55.8 | 98.2 | 24.4 | 86.3
12 (≈ 17.3 µM) | 9.25 (≈ 13.4 µM) | 18.6 (≈ 26.8 µM) | 8.92 (≈ 12.9 µM) | 11.9 (≈ 17.2 µM) | 247.8 to 248.5 | 12.1 (≈ 17.4 µM) | CC1(C)C2CC[C@]3(C)[C@H](C(=O)C=C4[C@@H]5C[C@@](C)(C(=O)O)CC[C@]5(C)CC[C@]43C)[C@@]2(C)CC[C@@H]1OC(=O)Nc1ccc(Cl)c(C(F)(F)F)c1 (stereo partly drawn) [3b, 3β-(((4-chloro-3-(trifluoromethyl)phenyl)carbamoyl)oxy)-11-oxo-olean-12-en-30-oic acid] | 14.1 | 87.7 | 14 | 77.3
11.3 (≈ 16.8 µM) | 12.6 (≈ 18.6 µM) | 26 (≈ 38.5 µM) | 9.3 (≈ 13.8 µM) | 7.42 (≈ 11 µM) | 256.4 to 258.4 | 13.3 (≈ 19.8 µM) | CC1(C)C2CC[C@]3(C)[C@H](C(=O)C=C4[C@@H]5C[C@@](C)(C(=O)O)CC[C@]5(C)CC[C@]43C)[C@@]2(C)CC[C@@H]1OC(=O)Nc1ccc(OC(F)(F)F)cc1 (stereo partly drawn) [3n, 3β-(((4-(trifluoromethoxy)phenyl)carbamoyl)oxy)-11-oxo-olean-12-en-30-oic acid] | 19 | 97.7 | 20.1 | 97.1
11.4 (≈ 17.4 µM) | 11.6 (≈ 17.6 µM) | 12.3 (≈ 18.7 µM) | 9.31 (≈ 14.1 µM) | 11.2 (≈ 17 µM) | 260 to 261.4 | 11.9 (≈ 18.1 µM) | CC1(C)C2CC[C@]3(C)[C@H](C(=O)C=C4[C@@H]5C[C@@](C)(C(=O)O)CC[C@]5(C)CC[C@]43C)[C@@]2(C)CC[C@@H]1OC(=O)Nc1ccc(Cl)c(Cl)c1 (stereo partly drawn) [3a, 3β-(((3,4-dichlorophenyl)carbamoyl)oxy)-11-oxo-olean-12-en-30-oic acid] | 11.3 | 98 | 23.9 | 95.9
10.9 (≈ 17.5 µM) | 11.9 (≈ 19.1 µM) | 7.31 (≈ 11.7 µM) | 8.51 (≈ 13.6 µM) | 11.3 (≈ 18.2 µM) |  | 9.75 (≈ 15.6 µM) | CC1(C)C2CC[C@]3(C)[C@H](C(=O)C=C4[C@@H]5C[C@@](C)(C(=O)O)CC[C@]5(C)CC[C@]43C)[C@@]2(C)CC[C@@H]1OC(=O)Nc1cccc(Cl)c1 (stereo partly drawn) [3e, 3β-(((3-chlorophenyl)carbamoyl)oxy)-11-oxo-olean-12-en-30-oic acid] | 18.8 | 96.4 | 14.3 | 74.9
 |  |  |  |  | 291 to 292.5 |  | CC1(C)C2CC[C@]3(C)[C@H](C(=O)C=C4[C@@H]5C[C@@](C)(C(=O)N6CCOCC6)CC[C@]5(C)CC[C@]43C)[C@@]2(C)CC[C@@H]1OC(=O)Nc1cccc(Cl)c1 (stereo partly drawn) [4e, 3β-(((3-chlorophenyl)carbamoyl)oxy)-30-morpholino-olean-12-ene-11,30-dione] | 7.22 | 13.2 | 0 | 0
 |  |  |  |  | 305.1 to 311.4 |  | CC1(C(=O)N2CCOCC2)CCC2(C)CCC3(C)C(=CC(=O)C4C5(C)CCC(OC(=O)Nc6ccc(F)cc6)C(C)(C)C5CCC43C)C2C1 (stereo not drawn) [4h, 3β-(((4-fluorophenyl)carbamoyl)oxy)-30-morpholino-olean-12-ene-11,30-dione] | 14.8 | 30.4 | 0 | 8.54
0.67 (≈ 1.49 µM) | 2.15 (≈ 4.77 µM) | 0.28 (≈ 0.622 µM) | 1.84 (≈ 4.09 µM) | 1.27 (≈ 2.82 µM) |  | 3.3 (≈ 7.33 µM) | C[C@@H](Oc1cc(-c2cnn(C3CCNCC3)c2)cnc1N)c1c(Cl)ccc(F)c1Cl [Crizotinib, reference compound] | 68.8 | 99.8 | 67.6 | 97.3
 |  |  |  |  | 292.5 to 293 |  | CC1(C)C2CC[C@]3(C)[C@H](C(=O)C=C4[C@@H]5C[C@@](C)(C(=O)N6CCOCC6)CC[C@]5(C)CC[C@]43C)[C@@]2(C)CC[C@@H]1OC(=O)Nc1ccc(Cl)c(Cl)c1 (stereo partly drawn) [4a, 3β-(((3,4-dichlorophenyl)carbamoyl)oxy)-30-morpholino-olean-12-ene-11,30-dione] | 8.88 | 18.3 | 0 | 0
9.74 (≈ 14.8 µM) | 10.7 (≈ 16.2 µM) | 15.5 (≈ 23.5 µM) | 5.53 (≈ 8.4 µM) | 12.3 (≈ 18.6 µM) | 236.1 to 237.7 | 15 (≈ 22.7 µM) | CC1(C)C2CC[C@]3(C)[C@H](C(=O)C=C4[C@@H]5C[C@@](C)(C(=O)O)CC[C@]5(C)CC[C@]43C)[C@@]2(C)CC[C@@H]1OC(=O)Nc1cc(Cl)cc(Cl)c1 (stereo partly drawn) [3c, 3β-(((3,5-dichlorophenyl)carbamoyl)oxy)-11-oxo-olean-12-en-30-oic acid] | 8.39 | 98.6 | 18.5 | 95.4
 |  |  |  |  | 235.1 to 236.7 |  | CC1(C)C2CC[C@]3(C)[C@H](C(=O)C=C4[C@@H]5C[C@@](C)(C(=O)O)CC[C@]5(C)CC[C@]43C)[C@@]2(C)CC[C@@H]1OC(=O)Nc1ccc(Cl)cc1 (stereo partly drawn) [3d, 3β-(((4-chlorophenyl)carbamoyl)oxy)-11-oxo-olean-12-en-30-oic acid] | 13.7 | 56.2 | 9.93 | 55.4
 |  |  |  |  | 264 to 264.8 |  | COc1ccc(NC(=O)O[C@H]2CC[C@@]3(C)C(CC[C@]4(C)[C@@H]3C(=O)C=C3[C@@H]5C[C@@](C)(C(=O)O)CC[C@]5(C)CC[C@]34C)C2(C)C)cc1 (stereo partly drawn) [3m, 3β-(((4-methoxyphenyl)carbamoyl)oxy)-11-oxo-olean-12-en-30-oic acid] | 12.8 | 32.3 | 11.7 | 47.5
> 40 | > 40 | > 40 | > 40 | > 40 |  | > 40 | CC1(C)[C@@H](O)CC[C@]2(C)[C@H]3C(=O)C=C4[C@@H]5C[C@@](C)(C(=O)O)CC[C@]5(C)CC[C@@]4(C)[C@]3(C)CC[C@@H]12 [18β-GA, 18β-glycyrrhetinic acid] | 0 | 12.9 | 0 | 8.41

SMILES | IC50 (HT29) [µg/mL] | IC50 (HepG2) [µg/mL] | IC50 (Karpas299) [µg/mL] | IC50 (MCF-7) [µg/mL] | IC50 (A549) [µg/mL] | melting point [°C] | IC50 (PC-3) [µg/mL] | inhibition at 2 µg/mL (HT29) [%] | inhibition at 20 µg/mL (HT29) [%] | inhibition at 2 µg/mL (A549) [%] | inhibition at 20 µg/mL (A549) [%]
CC1(C)C2CC[C@]3(C)[C@H](C(=O)C=C4[C@@H]5C[C@@](C)(C(=O)O)CC[C@]5(C)CC[C@]43C)[C@@]2(C)CC[C@@H]1OC(=O)CN1CCC(C(N)=O)CC1 (stereo partly drawn) [6b, 3β-(2-(4-carbamoylpiperidin-1-yl)acetoxy)-11-oxo-olean-12-en-30-oic acid] |  |  |  |  |  | 283.5 to 285 |  | 0 | 12.3 | 0 | 0
CC1(C)C2CC[C@]3(C)[C@H](C(=O)C=C4[C@@H]5C[C@@](C)(C(=O)O)CC[C@]5(C)CC[C@]43C)[C@@]2(C)CC[C@@H]1OC(=O)CN1CCOCC1 (stereo partly drawn) [6a, 3β-(2-morpholinoacetoxy)-11-oxo-olean-12-en-30-oic acid] |  |  |  |  |  | 275.3 to 276.4 |  | 0 | 0 | 0 | 0
